# Where two headings read alike, the source gives them in different places.
# Tests used:
# hPIV-1 NI = hPIV-1 NI (Human parainfluenza 1 virus, UniProt P16071); assay: biochemical
# Experimental: IC50 values for a number of compounds of the first aspect were determined by standard assay methods previously described in Guillon, P et al, Nature Communications (2014).
# hPIV-3 HN = hPIV-3 HN (Human parainfluenza 3 virus, UniProt P08492); assay type: biochemical, hPIV-3 (strain C-243)
# [1] = Table 5, read-out: hPIV-3 NI (IC50 values)
# Sequence of hPIV-1 NI (P16071 whole entry): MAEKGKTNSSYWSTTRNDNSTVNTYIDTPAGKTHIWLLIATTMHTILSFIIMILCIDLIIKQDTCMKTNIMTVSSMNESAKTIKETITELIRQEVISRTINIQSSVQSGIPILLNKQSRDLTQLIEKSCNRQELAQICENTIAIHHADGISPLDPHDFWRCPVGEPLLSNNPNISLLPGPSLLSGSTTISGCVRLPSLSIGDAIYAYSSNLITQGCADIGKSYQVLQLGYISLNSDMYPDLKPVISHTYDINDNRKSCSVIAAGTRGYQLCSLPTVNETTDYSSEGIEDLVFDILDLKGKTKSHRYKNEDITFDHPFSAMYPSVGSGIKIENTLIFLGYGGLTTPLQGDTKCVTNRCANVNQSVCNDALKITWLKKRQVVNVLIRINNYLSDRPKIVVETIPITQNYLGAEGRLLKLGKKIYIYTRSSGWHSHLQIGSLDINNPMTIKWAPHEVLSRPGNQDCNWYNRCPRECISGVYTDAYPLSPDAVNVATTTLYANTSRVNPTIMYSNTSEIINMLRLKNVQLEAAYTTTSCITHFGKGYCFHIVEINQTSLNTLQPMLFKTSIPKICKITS
# Sequence of hPIV-3 HN (P08492 whole entry): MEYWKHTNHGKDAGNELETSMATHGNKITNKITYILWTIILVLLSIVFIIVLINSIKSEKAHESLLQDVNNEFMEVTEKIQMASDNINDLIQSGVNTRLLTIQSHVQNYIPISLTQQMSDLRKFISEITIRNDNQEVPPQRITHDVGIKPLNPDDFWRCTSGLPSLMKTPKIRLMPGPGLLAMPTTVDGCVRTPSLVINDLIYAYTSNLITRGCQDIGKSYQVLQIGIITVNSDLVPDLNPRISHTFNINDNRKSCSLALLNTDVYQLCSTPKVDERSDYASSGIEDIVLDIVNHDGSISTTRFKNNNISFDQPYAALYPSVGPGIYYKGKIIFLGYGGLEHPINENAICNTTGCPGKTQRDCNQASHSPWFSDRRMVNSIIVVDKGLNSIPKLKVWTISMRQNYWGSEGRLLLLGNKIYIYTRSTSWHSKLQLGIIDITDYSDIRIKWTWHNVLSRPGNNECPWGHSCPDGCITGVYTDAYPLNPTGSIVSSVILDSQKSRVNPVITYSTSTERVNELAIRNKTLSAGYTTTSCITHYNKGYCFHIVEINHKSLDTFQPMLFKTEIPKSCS
compound,measurement,setting,value
"CC(=O)N[C@H]1[C@H]([C@H](O)[C@H](O)CO)OC(C(=O)O)=C[C@@H]1n1cnnn1 [IE832-98, Sodium 5-acetamido-2,6-anhydro-3,4,5-trideoxy-4-(1H-tetrazol-1-yl)-D-glycero-D-galacto-non-2-enonate]",IC50,hPIV-1 NI,7.44 µM
same,IC50,hPIV-3 HN; [1],27.4 µM
"CC(=O)N[C@H]1[C@H]([C@H](O)C(O)CO)OC(C(=O)O)=C[C@@H]1n1cc(-c2ccccc2Cl)nn1 (stereo partly drawn) [IE1172-78, Sodium 5-acetamido-2,6-anhydro-4-(4-(2-chlorophenyl)-[1,2,3,]triazol-1-yl)-3,4,5-trideoxy-D-glycero-D-galacto-non-2-enonate]",IC50,hPIV-1 NI,75.2 µM
same,IC50,hPIV-3 HN; [1],2.47 µM
"CCCc1cn([C@H]2C=C(C(=O)O)O[C@@H]([C@H](O)[C@H](O)CO)[C@@H]2NC(C)=O)nn1 [IE832-26, Sodium 5-acetamido-2,6-anhydro-3,4,5-trideoxy-4-(4-propyl-[1,2,3,]triazol-1-yl)-D-glycero-D-galacto-non-2-enonate]",IC50,hPIV-1 NI,95.5 µM
same,IC50,hPIV-3 HN; [1],67.7 µM
"COc1ccccc1-c1cn([C@H]2C=C(C(=O)O)O[C@@H]([C@H](O)[C@H](O)CO)[C@@H]2NC(C)=O)nn1 [IE832-37, Sodium 5-acetamido-2,6-anhydro-3,4,5-trideoxy-4-(4-(2-methoxyphenyl)-[1,2,3,]triazol-1-yl)-D-glycero-D-galacto-non-2-enonate]",IC50,hPIV-1 NI,201 µM
same,IC50,hPIV-3 HN; [1],2.4 µM
"CC(=O)N[C@H]1[C@H]([C@H](O)[C@H](O)CO)OC(C(=O)O)=C[C@@H]1n1cc(-c2cccnc2)nn1 [IE832-27, Sodium 5-acetamido-2,6-anhydro-3,4,5-trideoxy-4-(4-(pyridin-3-yl)-[1,2,3,]triazol-1-yl)-D-glycero-D-galacto-non-2-enonate]",IC50,hPIV-1 NI,302 µM
same,IC50,hPIV-3 HN; [1],106 µM
"CC(=O)N[C@H]1[C@H]([C@H](O)[C@H](O)CO)OC(C(=O)O)=C[C@@H]1n1cc(-c2ccc(CO)cc2)nn1 [IE832-12, Sodium 5-acetamido-2,6-anhydro-3,4,5-trideoxy-4-(4-(4-hydroxymethylphenyl)-[1,2,3,]triazol-1-yl)-D-glycero-D-galacto-non-2-enonate]",IC50,hPIV-1 NI,215 µM
same,IC50,hPIV-3 HN; [1],51.9 µM
"N#Cc1c2ccccc2cn1[C@H]1C=C(C(=O)O)O[C@@H]([C@H](O)[C@H](O)CO)[C@@H]1NC(=O)C(F)(F)F [IE927-99, Sodium 2,6-anhydro-4-(1-cyano-2H-isoindol-2-yl)-3,4,5-trideoxy-5-(2,2,2-trifluoroacetamido)-D-glycero-D-galacto-non-2-enonate]",IC50,hPIV-1 NI,3.09 µM
same,IC50,hPIV-3 HN; [1],0.268 µM
same,IC50,"hPIV-3 HN; text b135, read-out: IC50 values for hPIV-3 HN",0.27 µM
"CC(C)C(=O)N[C@H]1[C@H]([C@H](O)[C@H](O)CO)OC(C(=O)O)=C[C@@H]1n1cc2ccccc2c1C#N [IE889-99, Sodium 2,6-anhydro-4-(1-cyano-2H-isoindol-2-yl)-3,4,5-trideoxy-5-isobutyramido-D-glycero-D-galacto-non-2-enonate]",IC50,hPIV-1 NI,6.22 µM
same,IC50,hPIV-3 HN; [1],0.599 µM
"CC(=O)N[C@H]1[C@H]([C@H](O)[C@H](O)CO)OC(C(=O)O)=C[C@@H]1n1cc2ccccc2c1C#N [IE889-80, Sodium 5-acetamido-2,6-anhydro-4-(1-cyano-2H-isoindol-2-yl)-3,4,5-trideoxy-D-glycero-D-galacto-non-2-enonate]",IC50,hPIV-1 NI,16.9 µM
same,IC50,hPIV-3 HN; [1],2.68 µM
"CC(=O)N[C@H]1[C@H]([C@H](O)[C@H](O)CO)OC(C(=O)O)=C[C@@H]1n1cc(CC(C)C)nn1 [IE832-8, Sodium 5-acetamido-2,6-anhydro-3,4,5-trideoxy-4-(4-isobutyl-[1,2,3,]triazol-1-yl)-D-glycero-D-galacto-non-2-enonate]",IC50,hPIV-1 NI,301 µM
same,IC50,hPIV-3 HN; [1],54.4 µM
"COc1cccc(-c2cn([C@H]3C=C(C(=O)O)O[C@@H]([C@H](O)[C@H](O)CO)[C@@H]3NC(C)=O)nn2)c1 [IE832-20, Sodium 5-acetamido-2,6-anhydro-3,4,5-trideoxy-4-(4-(3-methoxyphenyl)-[1,2,3,]triazol-1-yl)-D-glycero-D-galacto-non-2-enonate]",IC50,hPIV-1 NI,193 µM
same,IC50,hPIV-3 HN; [1],6.28 µM
"CC(=O)N[C@H]1[C@H]([C@H](O)C(O)CO)OC(C(=O)O)=C[C@@H]1n1nncc1-c1ccccc1 (stereo partly drawn) [IE1172-45, Sodium 5-acetamido-2,6-anhydro-3,4,5-trideoxy-4-(5-phenyl-[1,2,3,]triazol-1-yl)-D-glycero-D-galacto-non-2-enonate]",IC50,hPIV-1 NI,> 1000 µM
same,IC50,hPIV-3 HN; [1],315 µM
"COCc1cnnn1[C@H]1C=C(C(=O)O)O[C@@H]([C@H](O)C(O)CO)[C@@H]1NC(C)=O (stereo partly drawn) [IE1172-87, Sodium 5-acetamido-2,6-anhydro-3,4,5-trideoxy-4-(5-methoxymethyl-[1,2,3,]triazol-1-yl)-D-glycero-D-galacto-non-2-enonate]",IC50,hPIV-1 NI,92.8 µM
same,IC50,hPIV-3 HN; [1],77.4 µM
"CC(=O)N[C@H]1[C@H]([C@H](O)C(O)CO)OC(C(=O)O)=C[C@@H]1n1cc(-c2ccccc2C(F)(F)F)nn1 (stereo partly drawn) [IE1172-83, Sodium 5-acetamido-2,6-anhydro-3,4,5-trideoxy-4-(4-(2-(trifluoromethyl)phenyl)-[1,2,3,]triazol-1-yl)-D-glycero-D-galacto-non-2-enonate]",IC50,hPIV-1 NI,73.6 µM
same,IC50,hPIV-3 HN; [1],5.61 µM
"COc1ccccc1-c1cn([C@H]2C=C(C(=O)O)O[C@@H]([C@H](O)[C@H](O)CO)[C@@H]2NC(=O)C(C)C)nn1 [IE889-34, Sodium 2,6-anhydro-3,4,5-trideoxy-5-isobutyramido-4-(4-(2-methoxyphenyl)-[1,2,3,]triazol-1-yl)-D-glycero-D-galacto-non-2-enonate]",IC50,hPIV-1 NI,30.3 µM
same,IC50,hPIV-3 HN; [1],3.23 µM
"CC(=O)N[C@H]1[C@H]([C@H](O)C(O)CO)OC(C(=O)O)=C[C@@H]1n1cc(-c2ccccc2Br)nn1 (stereo partly drawn) [IE1257-84, Sodium 5-acetamido-2,6-anhydro-4-(4-(2-bromophenyl)-[1,2,3,]triazol-1-yl)-3,4,5-trideoxy-D-glycero-D-galacto-non-2-enonate]",IC50,hPIV-1 NI,24.9 µM
same,IC50,hPIV-3 HN; [1],2.19 µM
"CC(=O)N[C@H]1[C@H]([C@H](O)C(O)CO)OC(C(=O)O)=C[C@@H]1n1cc(-c2ccccc2C)nn1 (stereo partly drawn) [IE1172-82, Sodium 5-acetamido-2,6-anhydro-3,4,5-trideoxy-4-(4-(2-methylphenyl)-[1,2,3,]triazol-1-yl)-D-glycero-D-galacto-non-2-enonate]",IC50,hPIV-1 NI,57.2 µM
same,IC50,hPIV-3 HN; [1],3.95 µM
"CC(C)Cc1cn([C@H]2C=C(C(=O)O)O[C@@H]([C@H](O)[C@H](O)CO)[C@@H]2NC(=O)C(C)C)nn1 [IE927-67, Sodium 2,6-anhydro-3,4,5-trideoxy-4-(4-isobutyl-[1,2,3,]triazol-1-yl)-5-isobutyramido-D-glycero-D-galacto-non-2-enonate]",IC50,hPIV-1 NI,47.7 µM
same,IC50,hPIV-3 HN; [1],114 µM
"COCc1cn(C2C(F)[C@](F)(C(=O)O)OC([C@H](O)[C@H](O)CO)[C@@H]2NC(=O)C(C)C)nn1 (stereo partly drawn) [IE1257-24, 3,4,5-Trideoxy-3-fluoro-5-isobutyramido-4-(4-methoxymethyl-[1,2,3,]triazol-1-yl)-D-erythro-β-L-gluco-non-2-ulopyranosonic fluoride]",IC50,hPIV-1 NI,0.36 µM
same,IC50,hPIV-3 HN; [1],8.49 µM
"CC(C)C(=O)N[C@H]1[C@H]([C@H](O)[C@H](O)CO)OC(C(=O)O)=C[C@@H]1n1cnnn1 [IE889-42, Sodium 2,6-anhydro-3,4,5-trideoxy-5-isobutyramido-4-(H-tetrazol-1-yl)-D-glycero-D-galacto-non-2-enonate]",IC50,hPIV-1 NI,0.159 µM
same,IC50,hPIV-3 HN; [1],5.11 µM
